Data taken from PubChem BioAssay (NCI).
Values joined by “and” are separate entries in the source; they are usually repeats but may differ in a detail not shown here. Equal entries are not always repeated.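 Protocol summary: plate cells (96-well), add compound at 5 concentrations, incubate 48 h, interpolate endpoints linearly. GI50 is the concentration that inhibits growth by half. TGI denotes the concentration required for complete inhibition of growth.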

Columns and labels:
Assay in all cases: inhibition of tumour cell growth, NCI panel, 48 h
NCI-H460 lung = system: NCI-H460 lung
NCI/ADR-RES ovarian = system: NCI/ADR-RES ovarian
COLO 205 colon = system: COLO 205 colon
HCC-2998 colon = system: HCC-2998 colon
IGROV1 ovarian = system: IGROV1 ovarian
SN12C renal = system: SN12C renal
A498 renal = system: A498 renal
NCI-H226 lung = system: NCI-H226 lung
HL-60(TB) leukemia = system: HL-60(TB) leukemia
UACC-62 melanoma = system: UACC-62 melanoma

Structure (SMILES) | GI50 (NCI-H460 lung) | TGI (NCI-H460 lung) | GI50 (NCI/ADR-RES ovarian) [µM] | TGI (NCI/ADR-RES ovarian) [µM] | GI50 (COLO 205 colon) | TGI (COLO 205 colon) | GI50 (HCC-2998 colon) | TGI (HCC-2998 colon) | GI50 (IGROV1 ovarian) | TGI (IGROV1 ovarian) | GI50 (SN12C renal) | TGI (SN12C renal) [µM] | GI50 (A498 renal) [µM] | TGI (A498 renal) [µM] | GI50 (NCI-H226 lung) | TGI (NCI-H226 lung) | GI50 (HL-60(TB) leukemia) | TGI (HL-60(TB) leukemia) | GI50 (UACC-62 melanoma) | TGI (UACC-62 melanoma)
CC(C)COC(=O)c1ccc2[nH]c(O)c(C=Nc3ccc(S(N)(=O)=O)cc3)c2c1 | 0.787 µM | 3.41 µM | 5.36 | 21.2 | 0.532 µM | 1.91 µM | 3.27 µM | 9.03 µM | 1.75 µM | 8.01 µM | 1.21 µM | 7.94 | 2.28 | 5.9 | 1.73 µM | 6.79 µM | 0.68 µM | 2.38 µM | 1.91 µM | 6.08 µM
COc1ccc2nc(NC(=O)c3cccnc3Nc3cc(OC)c(OC)c(OC)c3)sc2c1 | 7.42 µM | 24 µM | 8.97 | 25.7 | 17.4 µM | 51.5 µM | 17 µM | 39.4 µM | 13.2 µM | 28.5 µM | 11.7 µM | 27.5 | 2.19 | 7.42 | 10.7 µM | 96.7 µM | 32.3 µM | > 100 µM | 8.45 µM | 24.6 µM
CN1C(Cl)=NS(=O)(=O)c2ccccc21 | – | > 100 µM | – | > 100 | – | > 100 µM | – | > 100 µM | – | > 100 µM | – | > 100 | – | > 100 | – | > 100 µM | – | > 100 µM | – | > 100 µM
O=S(=O)(NCCNc1nccc(-c2c(-c3ccc(F)cc3)nc3sccn23)n1)c1ccccc1 | 2.72 µM | > 100 µM | 5.6 | > 100 | 2.23 µM | > 100 µM | 22.4 µM | > 100 µM | 2.99 µM | 32.7 µM | 6.86 µM | > 100 | 5.23 | > 100 | 7.73 µM | > 100 µM | 16.9 µM | 61.7 µM | 5.13 µM | 23.2 µM
[Cl][Cd][Cl] | 1.44 µM and 4.53 µM and 1.16 µM | 17.6 µM and 24.9 µM | 120 | 277 | > 46.7 µM and 12.9 µM | > 69.2 µM and 36.3 µM | 23.6 µM and 79 µM | > 63.5 µM and 158 µM | 4.32 µM and 29.7 µM and 8.4 µM | > 60.6 µM and 16.1 µM | > 69 µM and 53 µM | 158 | 14 | 32.9 | > 44 µM and 11.9 µM | > 69.7 µM and 43.6 µM | 39.4 µM and 18.6 µM | > 84.5 µM and 118 µM | 5.02 µM and 20.2 µM and 7.81 µM | 35.9 µM and 20.8 µM
O=C(Nc1ccc(I)cc1F)c1cc(Cl)ccc1O | 0.434 µM | > 26.9 µM | 0.4 | 3.54 | 3.45 µM | 11.2 µM | 3.14 µM | 10.1 µM | 0.36 µM | > 100 µM | 0.365 µM | 4.47 | 0.176 | 0.585 | 1.17 µM | 4.89 µM | 0.441 µM | 3.27 µM | 0.273 µM | 1.05 µM
Oc1ccc(Cl)cc1CNc1nc2ccccc2[nH]1 | 12.5 µM | 26.3 µM | 11.5 | 37.8 | 16.8 µM | 32.9 µM | 16.5 µM | 32 µM | 18.3 µM | 41.3 µM | 13.7 µM | 29.4 | 0.141 | 18.2 | 19.6 µM | 50.2 µM | 19.8 µM | > 100 µM | 13.8 µM | 27.6 µM
